Experiment [1] deals with human IL-17A / human IL-17RA (Homo sapiens (Human), UniProt Q16552). The experiment is described as follows: Human IL-17A biochemical assay (HTRF, blocking of IL-17A binding to IL-17RA). The following applies: 0.4 nM IL-17A, 0.3 nM IL-17RA, max compound concentration 10 uM. The method in brief:
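Compounds (10-point, 2.7-fold dilution from 10 uM) preincubated 3 h at RT with 0.4 nM human IL-17A, followed by 1 h with 0.3 nM IL-17RA and 1 h with Tb-cryptate/XL665 antibodies; buffer 20 mM HEPES pH 7.5, 0.1% BSA. Inhibition derived from HTRF fluorescence ratio; IC50 by four-parameter logistic fitting.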
(In general: TR-FRET usually uses a lanthanide donor and a delayed reading to cut background.)

Experiment [2] relates to IL-17-induced GROα secretion from HT-29 cells. Put plainly: GROα release assay in human colorectal adenocarcinoma epithelial cell (HT-29, ELISA). Type of experiment: cell-based. The following applies: Homo sapiens, HT-29, 48 h, 10 ng/mL IL-17A, highest concentration 10 μM, read-out: Cellular assay HT29 cell/CXCL1 IC50. In short, it runs like this: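 IC50 values come from four-parameter fits of GROα levels, quantified by ELISA (450 nm, standard curve) in supernatants. Compounds, 4-fold serially diluted from 10 μM, were mixed 15 min with IL-17A (10 ng/mL final) before 48 h incubation with HT-29 cells at 37°C.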
In general terms: ELISA stands for enzyme-linked immunosorbent assay.

human IL-17A / human IL-17RA, sequence (Q16552 24-155): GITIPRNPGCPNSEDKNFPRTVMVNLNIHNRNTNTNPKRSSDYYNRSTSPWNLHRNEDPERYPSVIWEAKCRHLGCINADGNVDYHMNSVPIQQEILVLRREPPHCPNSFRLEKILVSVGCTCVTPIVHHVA

In the case of `CNC(=O)C1(N2CC(Cc3ccc(C(F)(F)F)cc3)NC2=O)Cc2ccc(NC(=O)[C@@H](NC(=O)c3ccnn3C)C3CCCCC3)cc2C1` (stereo partly drawn) [Example 80, N-((1S)-1-cyclohexyl-2-((2-(methylcarbamoyl)-2-(2-oxo-4-(4-(trifluoromethyl)benzyl)imidazolidin-1-yl)-2,3-dihydro-1H-inden-5-yl)amino)-2-oxoethyl)-1-methyl-1H-pyrazole-5-carboxamide], the results for the IC50 in experiment [1] and in experiment [2] were 157 nM and 971 nM, respectively.

For the compound `CNC(=O)C1(N2CC(C(C)C(F)(F)F)NC2=O)Cc2ccc(NC(=O)[C@@H](NC(=O)c3ccnn3C)C3CCCCC3)cc2C1` (stereo partly drawn) [Example 81, N-((1S)-1-cyclohexyl-2-((2-(methylcarbamoyl)-2-(2-oxo-4-(1,1,1-trifluoropropan-2-yl)imidazolidin-1-yl)-2,3-dihydro-1H-inden-5-yl)amino)-2-oxoethyl)-1-methyl-1H-pyrazole-5-carboxamide], the results for the IC50 in experiment [1] and in experiment [2] were 75 nM and 702 nM, respectively.

`[2H]C([2H])([2H])NC(=O)C1(N2C[C@@H](C(C)C)NC2=O)Cc2ccc(NC(=O)[C@@H](NC(=O)c3ccnn3C)C3CCCCCC3)cc2C1` (stereo partly drawn) [Example 82, N-((1S)-1-cycloheptyl-2-((2-((R)-4-isopropyl-2-oxoimidazolidin-1-yl)-2-((methyl-d3)carbamoyl)-2,3-dihydro-1H-inden-5-yl)amino)-2-oxoethyl)-1-methyl-1H-pyrazole-5-carboxamide]: the IC50 was determined as 32 nM in experiment [1] and 156 nM in experiment [2].

Consider `CC(C)[C@@H]1CN(C2(C(N)=O)Cc3ccc(NC(=O)[C@@H](NC(=O)c4ccnn4C)C4CCCCCC4)cc3C2)C(=O)N1` (stereo partly drawn) [Example 83, N-((1S)-2-((2-carbamoyl-2-((R)-4-isopropyl-2-oxoimidazolidin-1-yl)-2,3-dihydro-1H-inden-5-yl)amino)-1-cycloheptyl-2-oxoethyl)-1-methyl-1H-pyrazole-5-carboxamide], for which the IC50 in experiment [1] was determined as 22 nM; in experiment [2], 190 nM.

For `CNC(=O)C1(N2C[C@@H](C(C)C)NC2=O)Cc2ccc(NC(=O)[C@@H](NC(=O)c3cccc(OC(C)C)c3)C3CCCCC3)cc2C1` (stereo partly drawn) [Example 84, 5-((S)-2-cyclohexyl-2-(3-isopropoxybenzamido)acetamido)-2-((R)-4-isopropyl-2-oxoimidazolidin-1-yl)-N-methyl-2,3-dihydro-1H-indene-2-carboxamide], the IC50 in experiment [1] amounted to 37 nM; in experiment [2], 94.4 nM.

As for `CC(C)[C@@H]1CN(C2(C(=O)NC(CO)C3CCC3)Cc3ccc(NC(=O)[C@@H](NC(=O)c4ccnn4C)C4CCCCC4)cc3C2)C(=O)N1` (stereo partly drawn) [Example 86, N-((1S)-2-((2-((1-cyclobutyl-2-hydroxyethyl)carbamoyl)-2-((R)-4-isopropyl-2-oxoimidazolidin-1-yl)-2,3-dihydro-1H-inden-5-yl)amino)-1-cyclohexyl-2-oxoethyl)-1-methyl-1H-pyrazole-5-carboxamide], the IC50 came to 22 nM in experiment [1] and 23.5 nM in experiment [2].

As to `CNC(=O)C1(N2C[C@@H](C(C)C)NC2=O)Cc2ccc(NC(=O)C(NC(=O)c3ccnn3C)C3CCC(C)(C)CC3)cc2C1` (stereo partly drawn) [Example 87, N-(1-(4,4-dimethylcyclohexyl)-2-((2-((R)-4-isopropyl-2-oxoimidazolidin-1-yl)-2-(methylcarbamoyl)-2,3-dihydro-1H-inden-5-yl)amino)-2-oxoethyl)-1-methyl-1H-pyrazole-5-carboxamide], the IC50 in experiment [1] stood at 36 nM; in experiment [2], 352 nM.

As to `CNC(=O)C1(N2C[C@@H](C(C)C)NC2=O)Cc2ccc(NC(=O)C(NC(=O)c3ccnn3C)C3CCC(C)CC3)cc2C1` (stereo partly drawn) [Example 89, N-(2-((2-((R)-4-isopropyl-2-oxoimidazolidin-1-yl)-2-(methylcarbamoyl)-2,3-dihydro-1H-inden-5-yl)amino)-1-(4-methylcyclohexyl)-2-oxoethyl)-1-methyl-1H-pyrazole-5-carboxamide], the results for the IC50 in experiment [1] and in experiment [2] were 18 nM and 29.7 nM, respectively.

As to `CNC(=O)C1(N2C[C@@H](C(C)C)NC2=O)Cc2ccc(NC(=O)[C@@H](NC(=O)c3ccnn3C)C(C3CC3)C3CC3)cc2C1` (stereo partly drawn) [Example 90, N-((2S)-1,1-dicyclopropyl-3-((2-((R)-4-isopropyl-2-oxoimidazolidin-1-yl)-2-(methylcarbamoyl)-2,3-dihydro-1H-inden-5-yl)amino)-3-oxopropan-2-yl)-1-methyl-1H-pyrazole-5-carboxamide], the figures for the IC50 in experiment [1] and in experiment [2] were 37 nM and 48.6 nM, respectively.

`CNC(=O)C1(N2C[C@@H](C(C)C)NC2=O)Cc2ccc(NC(=O)[C@@H](NC(=O)c3ccnn3C(C)C)C(C3CC3)C3CC3)cc2C1` (stereo partly drawn) [Example 91, N-((2S)-1,1-dicyclopropyl-3-((2-((R)-4-isopropyl-2-oxoimidazolidin-1-yl)-2-(methylcarbamoyl)-2,3-dihydro-1H-inden-5-yl)amino)-3-oxopropan-2-yl)-1-isopropyl-1H-pyrazole-5-carboxamide]: the IC50 in experiment [1] turned out to be 71 nM; in experiment [2], 43 nM.

`CNC(=O)C1(N2CC(C3CC3)CNC2=O)Cc2ccc(NC(=O)[C@@H](NC(=O)c3ccnn3C)C3CCCCC3)cc2C1` (stereo partly drawn) [Example 94, N-((1S)-1-cyclohexyl-2-((2-(5-cyclopropyl-2-oxotetrahydropyrimidin-1(2H)-yl)-2-(methylcarbamoyl)-2,3-dihydro-1H-inden-5-yl)amino)-2-oxoethyl)-1-methyl-1H-pyrazole-5-carboxamide]: the IC50 in experiment [1] is 40 nM; in experiment [2], 118 nM.

Take `CNC(=O)C1(N2C[C@@H](C(C)C)NC2=O)Cc2ccc(NC(=O)C(NC(=O)c3ccnn3C)C3CCc4ccccc43)cc2C1` (stereo partly drawn) [Example 97, N-(1-(2,3-dihydro-1H-inden-1-yl)-2-((2-((R)-4-isopropyl-2-oxoimidazolidin-1-yl)-2-(methylcarbamoyl)-2,3-dihydro-1H-inden-5-yl)amino)-2-oxoethyl)-1-methyl-1H-pyrazole-5-carboxamide]: the figures for the IC50 in experiment [1] and in experiment [2] were 535 nM and 1860 nM, respectively.

Take `CNC(=O)C1(N2CC(C)CNC2=O)Cc2ccc(NC(=O)[C@@H](NC(=O)c3ccnn3C)C3CCCCC3)cc2C1` (stereo partly drawn) [Example 98, N-((1S)-1-cyclohexyl-2-((2-(5-methyl-2-oxotetrahydropyrimidin-1(2H)-yl)-2-(methylcarbamoyl)-2,3-dihydro-1H-inden-5-yl)amino)-2-oxoethyl)-1-methyl-1H-pyrazole-5-carboxamide]: the IC50 in experiment [1] stood at 628 nM; in experiment [2], 3280 nM.

As for `CNC(=O)C1(N2CC(Cc3ccccc3)CNC2=O)Cc2ccc(NC(=O)[C@@H](NC(=O)c3ccnn3C)C3CCCCC3)cc2C1` (stereo partly drawn) [Example 99, N-((1S)-2-((2-(5-benzyl-2-oxotetrahydropyrimidin-1(2H)-yl)-2-(methylcarbamoyl)-2,3-dihydro-1H-inden-5-yl)amino)-1-cyclohexyl-2-oxoethyl)-1-methyl-1H-pyrazole-5-carboxamide], the IC50 in experiment [1] worked out at 278 nM; in experiment [2], 2480 nM.

`CNC(=O)C1(N2CC(C)(Cc3ccc(OC)cc3)CNC2=O)Cc2ccc(NC(=O)[C@@H](NC(=O)c3ccnn3C)C3CCCCC3)cc2C1` (stereo partly drawn) [Example 100, N-((1S)-1-cyclohexyl-2-((2-(5-(4-methoxybenzyl)-5-methyl-2-oxotetrahydropyrimidin-1(2H)-yl)-2-(methylcarbamoyl)-2,3-dihydro-1H-inden-5-yl)amino)-2-oxoethyl)-1-methyl-1H-pyrazole-5-carboxamide]: the IC50 in experiment [1] is 886 nM; in experiment [2] it was 2560 nM.

Consider `CCC1CCC(C(NC(=O)c2ccnn2C)C(=O)Nc2ccc3c(c2)CC(C(=O)NC)(N2C[C@@H](C(C)C)NC2=O)C3)CC1` (stereo partly drawn) [Example 101, N-(1-(4-ethylcyclohexyl)-2-((2-((R)-4-isopropyl-2-oxoimidazolidin-1-yl)-2-(methylcarbamoyl)-2,3-dihydro-1H-inden-5-yl)amino)-2-oxoethyl)-1-methyl-1H-pyrazole-5-carboxamide], for which the IC50 in experiment [1] amounted to 7.5 nM; in experiment [2], 45.2 nM.

As for `CNC(=O)C1(N2CC3(CC3)CNC2=O)Cc2ccc(NC(=O)[C@@H](NC(=O)c3ccnn3C)C3CCCCC3)cc2C1` (stereo partly drawn) [Example 102, N-((1S)-1-cyclohexyl-2-((2-(methylcarbamoyl)-2-(6-oxo-5,7-diazaspiro[2.5]octan-5-yl)-2,3-dihydro-1H-inden-5-yl)amino)-2-oxoethyl)-1-methyl-1H-pyrazole-5-carboxamide], the values for the IC50 in experiment [1] and in experiment [2] were 9.5 nM and 17.3 nM, respectively.

`CNC(=O)C1(N2C[C@@H](C(C)C)NC2=O)Cc2ccc(NC(=O)C(NC(=O)c3ccnn3C)C3CCCC(C)C3)cc2C1` (stereo partly drawn) [Example 104, N-(2-((2-((R)-4-isopropyl-2-oxoimidazolidin-1-yl)-2-(methylcarbamoyl)-2,3-dihydro-1H-inden-5-yl)amino)-1-(3-methylcyclohexyl)-2-oxoethyl)-1-methyl-1H-pyrazole-5-carboxamide]: the IC50 in experiment [1] came out at 12 nM; in experiment [2], 23.6 nM.

Take `CCC1(C)CNC(=O)N(C2(C(=O)NC)Cc3ccc(NC(=O)[C@@H](NC(=O)c4ccnn4C)C4CCCCC4)cc3C2)C1` (stereo partly drawn) [Example 105, N-((1S)-1-cyclohexyl-2-((2-(5-ethyl-5-methyl-2-oxotetrahydropyrimidin-1(2H)-yl)-2-(methylcarbamoyl)-2,3-dihydro-1H-inden-5-yl)amino)-2-oxoethyl)-1-methyl-1H-pyrazole-5-carboxamide]: the results for the IC50 in experiment [1] and in experiment [2] were 15 nM and 55.5 nM, respectively.

These data come from patent publication US20250154138A1, “Small Molecule IL-17A Modulators” (BeiGene, Ltd., priority 2022, published 2025).
